In patent publication US11414403B2, “Antibacterial compound and uses of same” (BIOMÉRIEUX, priority 2017, dated 2022):
≈ marks a conversion by molar mass, not a printed value.

Assays:
Experiment in all cases: MIC by agar dilution method
Format in all cases: cell-based
[1] = test system: Enterobacter cloacae NCTC 11936; settings: NCTC11936, 22 hours at 37° C.
Experimental: (§1) The minimum inhibitory concentrations (MICs) of L-pyroglutamyl-L-1-aminoethyltetrazole (12) for 13 Gram-negative strains of bacteria and 8 Gram-positive strains of bacteria were determined using an agar dilution method described by Andrews J M. 2001 (“Determination of minimum inhibitory concentrations[…]; J. Antimicrob. Chemother. (2001) 48 Suppl. 1:5-16). Said method required the use of a defined antagonist-free medium (without peptone), prepared in the way previously described with the inclusion of 2% saponin-lysed horse blood, 25.0 μg/ml of NAD and 25.0 μg/ml of hemin (Atherton et al., 1979; “Phosphonopeptides as antibacterial agents: rationale, chemistry, and structure-activity relationships[…]; Antimicrob. Agents Chemother. (1979) 15:677-683). […] All the isolates were prepared at a density equivalent to […] in sterile deionized water using a densitometer (approximately 1.5×10^8 CFU/ml), then diluted to […]. A 1 μl aliquot of each diluted suspension was then placed on dishes with a multispot inoculator to give the recommended final inoculation of 10 000 CFU/spot (Andrews, 2001. “Determination of minimum inhibitory concentrations”; J. Antimicrob. Chemother. 48 Suppl 1:5-16). All the dishes (including the antimicrobial-free controls) were incubated for 22 hours at 37° C. All the tests were carried out on at least two independent replicates in order to examine the reproducibility.
(§2) The bacterial isolates tested all come from international collections, the American Type Culture Collection (ATCC) and the National Collection of Type Cultures (NCTC).

[2] = test system: Bacillus subtilis NCTC 9372
Experimental: as §1, §2

[3] = test system: Escherichia coli NCTC 10418; settings: NCTC10418, 22 hours at 37° C.
Experimental: as §1, §2

[4] = test system: Salmonella typhimurium NCTC 74; settings: Salmonella enterica, 22 hours at 37° C.
Experimental: as §1, §2

[5] = test system: Staphylococcus aureus (MSSA) NCTC 6571; settings: 22 hours at 37° C.
Experimental: as §1, §2

[6] = test system: Klebsiella pneumoniae NCTC 9528
Experimental: as §1, §2

[7] = test system: Streptococcus agalactiae NCTC 8181; settings: NCTC8181, 22 hours at 37° C.
Experimental: as §1, §2

[8] = test system: Yersinia enterocolitica NCTC 11176
Experimental: as §1, §2

[9] = test system: Providencia rettgeri NCTC 7475; settings: NCTC7475, 22 hours at 37° C.
Experimental: as §1, §2

[10] = test system: Serratia marcescens NCTC 10211
Experimental: as §1, §2

[11] = test system: Staphylococcus aureus (MRSA) NCTC 11939; settings: 22 hours at 37° C.
Experimental: as §1, §2

[12] = test system: Escherichia coli NCTC 12241; settings: NCTC12241, 22 hours at 37° C.
Experimental: as §1, §2

[13] = test system: Enterococcus faecalis NCTC 775
Experimental: as §1, §2

[14] = test system: Pseudomonas aeruginosa NCTC 10662; settings: NCTC10662, 22 hours at 37° C.
Experimental: as §1, §2

[15] = test system: Enterococcus faecium NCTC 7171
Experimental: as §1, §2

[16] = test system: Burkholderia cepacia ATCC 25416; settings: ATCC25416, 22 hours at 37° C.
Experimental: as §1, §2

[17] = test system: Staphylococcus epidermidis NCTC 11047; settings: NCTC11047, 22 hours at 37° C.
Experimental: as §1, §2

[18] = test system: Listeria monocytogenes NCTC 11994; settings: NCTC11994, 22 hours at 37° C.
Experimental: as §1, §2

[19] = test system: Salmonella enteritidis NCTC 74; settings: Salmonella enterica, 22 hours at 37° C.
Experimental: as §1, §2

[20] = test system: Salmonella enteritidis NCTC 6676; settings: Salmonella enterica, 22 hours at 37° C.
Experimental: as §1, §2

[21] = test system: Acinetobacter baumannii ATCC 19606; settings: ATCC19606, 22 hours at 37° C.
Experimental: as §1, §2

[22] = at very low concentrations, of about 2 mg/l, enterococci

MIC [1]: > 128 µg/mL | MIC ([2]; NCTC9372, Bacillus subtilis NCTC 9372, 22 hours at 37° C.): 64 µg/mL (≈ 285 µM) | MIC [3]: > 128 µg/mL | MIC [4]: > 128 µg/mL | MIC [5]: > 128 µg/mL | MIC ([6]; NCTC9528, Klebsiella pneumoniae NCTC 9528, 22 hours at 37° C.): 8 µg/mL (≈ 35.7 µM) | MIC [7]: > 128 µg/mL | MIC ([8]; NCTC11176, Yersinia enterocolitica NCTC 11176, 22 hours at 37° C.): 4 µg/mL (≈ 17.8 µM) | MIC [9]: > 128 µg/mL | MIC ([10]; NCTC10211, Serratia marcescens NCTC 10211, 22 hours at 37° C.): 8 µg/mL (≈ 35.7 µM) | MIC [11]: > 128 µg/mL | MIC [12]: > 128 µg/mL | MIC ([13]; NCTC775, Enterococcus faecalis NCTC 775, 22 hours at 37° C.): 2 µg/mL (≈ 8.92 µM) | MIC [14]: > 128 µg/mL | MIC ([15]; NCTC7171, Enterococcus faecium NCTC 7171, 22 hours at 37° C.): 2 µg/mL (≈ 8.92 µM) | MIC [16]: > 128 µg/mL | MIC [17]: > 128 µg/mL | MIC [18]: > 128 µg/mL | MIC [19]: > 128 µg/mL | MIC [20]: > 128 µg/mL | MIC [21]: > 128 µg/mL
Structure (SMILES): C[C@H](NC(=O)[C@@H]1CCC(=O)N1)c1nnn[nH]1 [compound 12, L-pyroglutamyl-L-1-aminoethyltetrazole]
antibacterial activity (in words) ([2]; Bacillus subtilis): highly inhibitory | Growth at various concentrations (mg/l) ([6]; 4 mg/l, Klebsiella pneumoniae NCTC 9528): Tr. | antibacterial activity (in words) ([6]; Klebsiella pneumoniae): highly inhibitory | Growth at various concentrations (mg/l) ([8]; 2 mg/l, Yersinia enterocolitica NCTC 11176): Tr. | antibacterial activity (in words) ([8]; Yersinia enterocolitica): highly inhibitory | antibacterial activity (in words) ([10]; Serratia marcescens): highly inhibitory | antibacterial activity (in words) ([13]; Enterococcus faecalis): highly inhibitory | inhibition specificity (in words) [13, 22]: excellent inhibition specificity for enterococci | antibacterial activity (in words) ([15]; Enterococcus faecium): highly inhibitory | inhibition specificity (in words) [15, 22]: excellent inhibition specificity for enterococci
